In US20170231966A1, “INHIBITION OF IL-2 PRODUCTION” (AYUMI PHARMACEUTICAL CORPORATION, priority 2013, published 2017):
Where a name gives a salt, the structure may show the parent alone.

Tested on: transcriptional activation of IL-2
Assay: IL-2 transcriptional activation Luciferase Assay (IL-2 Gene Promoter Reporter Vector) in A23187-stimulated Jurkat cells
Assay type: cell-based, human
Details: for Action on A23187-accelerated transcriptional activation of IL-2 (in words) / Inhibition ratio (transcriptional activation of IL-2), Table 2 / Inhibiting ratio of IL-2 transcriptional activation: A23187-stimulated Jurkat cells; for Luc activity value, No stimulation / Luc activity value, Stimulated by A23187: Jurkat cells, 24 hours, average ± standard deviation, n=3; for Luc activity value, No stimulation: no A23187, DMSO = 1; for Luc activity value, Stimulated by A23187: A23187 0.3 μM, unstimulated DMSO = 1

## CCOCCN(CCCOc1ccc(OC)cc1C1Sc2cc(Cl)ccc2N1C(C)=O)C(C)C.Cl (racemic) [Compound 3, (±)-3-acetyl-6-chloro-2-[2-(3-(N-(2-ethoxyethyl)-N-isopropylamino)propoxy)-5-methoxyphenyl]benzothiazoline hydrochloride]
  Action on A23187-accelerated transcriptional activation of IL-2 (in words): inhibited transcriptional activation of IL-2
Compound 10 μM
  Inhibition ratio (transcriptional activation of IL-2), Table 2: 77%

## CCOCCN(CCCOc1ccc(OC)cc1C1Sc2cc(Cl)ccc2N1C(C)=O)C(C)C (single isomer, unassigned; (+)) [Compound 2, (+)-3-acetyl-6-chloro-2-[2-(3-(N-(2-ethoxyethyl)-N-isopropylamino)propoxy)-5-methoxyphenyl]benzothiazoline (+O,O′-diacetyl-L-tartaric acid salt]
  Action on A23187-accelerated transcriptional activation of IL-2 (in words): statistically significant inhibiting action
Compound 0.3 μM
  Luc activity value, No stimulation: 0.8842 ± 0.1143
  Luc activity value, Stimulated by A23187: 81.9510 ± 30.4537
  Inhibiting ratio of IL-2 transcriptional activation: 12%
Compound 1 μM
  Luc activity value, No stimulation: 0.9410 ± 0.0598
  Luc activity value, Stimulated by A23187: 65.0761 ± 13.2402
  Inhibiting ratio of IL-2 transcriptional activation: 30%
Compound 10 μM
  Luc activity value, No stimulation: 0.9469 ± 0.0928
  Luc activity value, Stimulated by A23187: 27.5064 ± 29.2861
  Inhibiting ratio of IL-2 transcriptional activation: 70%

## COc1ccc(OCCCN(CCO)C(C)C)c(C2Sc3cc(Cl)ccc3N2C(C)=O)c1.Cl (single isomer, unassigned; (+)) [Compound 4, (+)-3-acetyl-6-chloro-2-[2-(3-(N-(2-hydroxyethyl)-N-isopropylamino)propoxy)-5-methoxyphenyl]benzothiazoline hydrochloride]
  Action on A23187-accelerated transcriptional activation of IL-2 (in words): inhibited transcriptional activation of IL-2
Compound 10 μM
  Inhibition ratio (transcriptional activation of IL-2), Table 2: 38%

## CN(C(=O)C(c1ccccc1)c1ccccc1)[C@H](CN1CC[C@H](O)C1)c1ccccc1 [Asimadoline, asimadoline, reference compound]
Compound 10 μM
  Inhibition ratio (transcriptional activation of IL-2), Table 2: 19%

## COCCN(CCCOc1ccc(OC)cc1C1Sc2cc(Cl)ccc2N1C(C)=O)C(C)C [Compound 5, (+)-3-acetyl-6-chloro-2-[2-(3-(N-isopropyl-N-(2-methoxyethyl)amino)propoxy)-5-methoxyphenyl]benzothiazoline (−)-O,O′-diacetyl-L-tartaric acid salt]
  Action on A23187-accelerated transcriptional activation of IL-2 (in words): inhibited transcriptional activation of IL-2
Compound 10 μM
  Inhibition ratio (transcriptional activation of IL-2), Table 2: 72%
